Experimental findings from US11858956B2, “6-aza-nucleoside prodrugs as antiviral agents for treating virus infections” (Southern Research Institute, priority 2020, dated 2024) are described below.

Each structure is given as a SMILES string.

Common to all, as to format: cell-based
Data set [1] concerns VEEV. Put plainly: microbe, parasite or virus in culture. The conditions noted are these: Venezuelan equine encephalitis virus, NHDF; for EC90: read-out: VEEV (NHDF cells) EC90; for log reduction at 10 µM: read-out: VEEV (NHDF cells) VTR (virus titer reduction).
Data set [2] can be described thus: Cytotoxicity (CC50) in NHDF cells. The settings on record: human, CHIKV. The protocol: (§1) As used herein, “CC50” is intended to refer to the concentration of a substance (e.g., a compound or a drug) that is required for 50% reduction of cell viability. In one aspect, an CC50 can refer to the concentration of a substance that is required for 50% reduction (i.e., cytotoxicity) in vivo, as further defined elsewhere herein.
VTR=Virus titer reduction in log at 10 μM concentration. NT: not tested, ND: not determined.

For data set [3], the system named is H1N1 strain. Description: Antiviral activity against Influenza H1N1 strain in MDCK cells. The settings on record: Influenza A virus; for log reduction at 20 µM: at 20 μM concentration, 4-6 hours pre-incubation, read-out: H1N1 strain (MDCK cells) VTR (virus titer reduction); for EC90: 4-6 hours pre-incubation with compound. The protocol: (§2) The antiviral activity against Influenza viruses (H1N1 and H3N2 strains) evaluated in MDCK cells (4-6 hours pre-incubation with compound) shown in Table 5 below. VTR=Virus titer reduction in log at 20 μM concentration. NT: not tested, ND: not determined.

In data set [4] the test system is DENV. Description: Antiviral activity against DENV in HEK293 cells. The conditions noted are these: Dengue virus; for EC90: HEK293, read-out: DENV (HEK293 cells) EC90; for log reduction at 10 µM: HEK293, read-out: DENV (HEK293 cells) VTR (virus titer reduction).
The subject of data set [5] is CHIKV. Description: Antiviral activity against CHIKV in NHDF cells. The settings on record: Chikungunya virus; for EC90: read-out: CHIKV (NHDF cells) EC90; for log reduction at 10 µM: read-out: CHIKV (NHDF cells) VTR (virus titer reduction).
In data set [6] the test system is H3N2 strain. Put plainly: Antiviral activity against Influenza H3N2 strain in MDCK cells. The settings on record: Influenza A virus; for log reduction at 20 µM: at 20 μM concentration, 4-6 hours pre-incubation, read-out: H3N2 strain (MDCK cells) VTR (virus titer reduction); for EC90: 4-6 hours pre-incubation with compound. The protocol: as §2
Data set [7] deals with ZIKA. Description: Antiviral activity against ZIKA in HEK 293 cells. The conditions noted are these: Zika virus; for EC90: HEK293, read-out: ZIKA (HEK 293 cells) EC90; for log reduction at 10 µM: HEK293, read-out: ZIKA (HEK 293 cells) VTR (virus titer reduction).
A short description of data set [8]: Cytotoxicity (CC50) in MDCK cells. The settings on record: dog, H1N1. Here is the method: as §1, §2
Data set [9] deals with WNV. Description: Antiviral activity against WNV in HEK293 cells. The conditions noted are these: West Nile virus; for EC90: HEK293, read-out: WNV (HEK293 cells) EC90; for log reduction at 10 µM: HEK293, read-out: WNV (HEK293 cells) VTR (virus titer reduction).
A short description of data set [10]: Cytotoxicity (CC50) in HEK293 cells. The settings on record: human, WNV. Here is the method:
as §1
The antiviral activity against Alpharviruses evaluated in HEK293 cells (4 hours pre-incubation with compound before infected with virus) is shown in Table 2 below. VTR=Virus titer reduction in log at 10 μM concentration. NT: not tested, ND: not determined

In general, EC90 refers to the concentration at which the effect reaches the 90% level. Usually CC50 stands for the concentration giving 50% cytotoxicity. Read a low CC50 as harm at low concentration. As for `CC(C)COC(=O)[C@H](C)N[P@](=O)(OC[C@H]1O[C@@H](n2ncc(=O)[nH]c2=O)[C@H](O)[C@@H]1O)Oc1cccc2ccccc12` [Compound 8, isobutyl ((((2R,3S,4R,5R)-5-(3,5-dioxo-4,5-dihydro-1,2,4-triazin-2(3H)-yl)-3,4-dihydroxytetrahydrofuran-2-yl)-methoxy)(naphthalen-1-yloxy)phosphoryl)-L-alaninate], the EC90 in [1] was over 10000 nM; in data set [4], 3900 nM; in data set [5], over 10000 nM; in data set [7] it was 6000 nM; in [9] it was 2900 nM. Moreover, the log reduction at 10 µM in data set [1] turned out to be 0.21; in data set [4], 2.3; in [5], 0; in data set [7], 1.6; in data set [9], 2.8. For the same compound, the CC50 is over 40000 nM in [2], over 100000 nM in data set [8] and over 40000 nM in data set [10]. Moreover, the log reduction at 20 µM was 3.4 in data set [3] and 1.6 in data set [6].
Consider `CC(C)[C@@H](N)C(=O)OC[C@H]1O[C@@H](n2ncc(=O)[nH]c2=O)C(O)[C@H]1O` (stereo partly drawn) [Compound 9, ((2r,3s,4r,5r)-5-(3,5-dioxo-4,5-dihydro-1,2,4-triazin-2(3H)-yl)-3,4-dihydroxytetrahydrofuran-2-yl) methyl-D-valinate], for which the EC90 was determined as 3040 nM in data set [1]; 770 nM in [3]; 1300 nM in data set [4]; 1000 nM in [5]; 2410 nM in [6]; 1400 nM in data set [7]. For the same compound, the EC90 in [9] came to 220 nM. Moreover, the log reduction at 10 µM amounted to 3.1 in [1]; 3.2 in data set [4]; 1.34 in data set [5]; 2 in data set [7]; 3.5 in data set [9]. Besides, the CC50 in data set [2] was over 40000 nM; in data set [8] it was 19600 nM; in data set [10] it was 29000 nM. Further, the log reduction at 20 µM in data set [3] and in data set [6] was 3.4 in each case.
Consider `CC[C@H](C)[C@H](N)C(=O)OC[C@H]1O[C@@H](n2ncc(=O)[nH]c2=O)[C@H](O)[C@@H]1O` [Compound 10, ((2r,3s,4r,5r)-5-(3,5-dioxo-4,5-dihydro-1,2,4-triazin-2(3H)-yl)-3,4-dihydroxytetrahydrofuran-2-yl)methyl L-isoleucinate], for which the EC90 in [1] was 620 nM; in data set [3], 3680 nM; in [4], 300 nM; in data set [5], over 10000 nM; in data set [6] it was 3330 nM; in [7] it was 500 nM. In addition, the EC90 in data set [9] came to 200 nM. Further, the log reduction at 10 µM in data set [1] amounted to 3.51; in data set [4] it was 3.4; in [5], 0.39; in [7], 3.1; in [9], 3.9. For the same compound, the CC50 in [2] is over 40000 nM; in data set [8] it was 19300 nM; in data set [10] it was 29000 nM. The log reduction at 20 µM in data set [3] and in [6] was 3.4 each time.
Take `CCCCCCCCCCCCCCCCCC(=O)OC[C@H]1O[C@@H](n2ncc(=O)[nH]c2=O)[C@H](O)[C@@H]1O` [Compound 15, ((2r,3s,4r,5r)-5-(3,5-dioxo-4,5-dihydro-1,2,4-triazin-2(3H)-yl)-3,4-dihydroxytetrahydrofuran-2-yl)methyl stearate]: the EC90 in data set [1] is over 10000 nM; in data set [3], 750 nM; in data set [4] it was 160 nM; in data set [5], 310 nM; in data set [6] it was 3290 nM; in [7], 400 nM. Moreover, in data set [9], the EC90 is 330 nM. Further, the log reduction at 10 µM in data set [1] stood at 0; in data set [4] it was 3.6; in [5], 2.6; in data set [7], 3; in data set [9], 4.5. The CC50 in data set [2] is 7960 nM; in [8], over 20000 nM; in data set [10], 970 nM. Moreover, the log reduction at 20 µM came to 3.3 in [3] and 3 in data set [6].
Consider `CCCC(CCC)C(=O)Nc1cnn([C@@H]2O[C@H](CO)[C@@H](O)[C@H]2O)c(=O)n1` [Compound 18, N-(2-((2r,3r,4s,5r)-3,4-dihydroxy-5-(hydroxymethyl)-tetrahydrofuran-2-yl)-3-oxo-2,3-dihydro-1,2,4-triazin-5-yl)-2-propylpentanamide], for which the EC90 in [1] was over 10000 nM; in data set [3] it was 660 nM; in [4], 200 nM; in [5], 3200 nM; in [6], 2780 nM; in data set [7], 100 nM. Further, in data set [9], the EC90 came out at 400 nM. Moreover, the log reduction at 10 µM in data set [1] stood at 0.13; in [4], 4; in data set [5] it was 1.42; in [7], 2.7; in data set [9], 2.8. For the same compound, the CC50 in data set [2] was over 40000 nM; in [8], 19600 nM; in [10], 30800 nM. Further, the figures for the log reduction at 20 µM in data set [3] and in data set [6] were 3.3 and 3.4, respectively.
